Laboratory results as given in patent US9718796B2, “Substituted benzoazepines as toll-like receptor modulators” (VENTIRX PHARMACEUTICALS, INC., priority 2011, dated 2017).
Read-outs that look alike come from different tables or passages of the source.

Experiments:
hTLR8 = molecular target: T1, hTLR8 (Homo sapiens, UniProt Q9NR97); assay: HEK-293 hTLR8 transfectant antagonist assay (NF-κB driven SEAP reporter); assay type: cell-based; conditions: hTLR8 reporter cells
T1 construct: host or cells: HEK293 cells stably transfected with hTLR8
T1 sequence (Q9NR97 27-1041): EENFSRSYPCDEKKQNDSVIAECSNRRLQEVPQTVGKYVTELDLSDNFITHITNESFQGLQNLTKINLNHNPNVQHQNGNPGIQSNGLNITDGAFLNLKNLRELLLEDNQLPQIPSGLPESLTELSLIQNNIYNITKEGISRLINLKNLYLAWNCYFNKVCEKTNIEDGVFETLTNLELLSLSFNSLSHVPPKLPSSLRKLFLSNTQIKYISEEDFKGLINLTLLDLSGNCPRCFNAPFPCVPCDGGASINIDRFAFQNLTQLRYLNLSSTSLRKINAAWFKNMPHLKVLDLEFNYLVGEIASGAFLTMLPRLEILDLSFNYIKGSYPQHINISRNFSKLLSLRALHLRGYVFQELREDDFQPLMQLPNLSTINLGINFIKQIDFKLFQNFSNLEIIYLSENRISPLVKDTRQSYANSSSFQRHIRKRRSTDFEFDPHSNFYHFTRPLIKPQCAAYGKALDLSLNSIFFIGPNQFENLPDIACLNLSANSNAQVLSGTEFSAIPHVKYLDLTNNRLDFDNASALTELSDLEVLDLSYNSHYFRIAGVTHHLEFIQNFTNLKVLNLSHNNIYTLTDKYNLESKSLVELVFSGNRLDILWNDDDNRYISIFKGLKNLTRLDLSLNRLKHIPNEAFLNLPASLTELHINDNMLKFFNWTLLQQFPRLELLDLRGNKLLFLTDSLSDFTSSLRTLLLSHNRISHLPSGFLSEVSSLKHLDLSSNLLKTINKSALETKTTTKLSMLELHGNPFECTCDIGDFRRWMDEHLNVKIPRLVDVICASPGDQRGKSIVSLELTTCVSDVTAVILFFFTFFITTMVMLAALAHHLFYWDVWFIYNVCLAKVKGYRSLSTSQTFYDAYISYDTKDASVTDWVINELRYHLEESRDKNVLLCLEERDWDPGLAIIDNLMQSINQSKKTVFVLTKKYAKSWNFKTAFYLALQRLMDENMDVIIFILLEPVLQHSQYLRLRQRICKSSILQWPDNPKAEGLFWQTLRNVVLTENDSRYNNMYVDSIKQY
Method: The HEK-293 hTLR transfectant assay employs HEK293 cells stably transfected with various hTLRs and transiently co-transfected with a plasmid containing an NF-κB driven secreted embryonic alkaline phosphate (SEAP) reporter gene. Stimulation of TLRs activates their downstream signaling pathways and induces nuclear translocation of the transcription factor NF-κB. Reporter gene activity is then measured using a spectrophotometric assay. To measure antagonist activity, human embryonic kidney (HEK) cells (e.g., 293XL-hTLR8 cells available from InvivoGen, San Diego, Calif.) are prepared according to supplier's instructions and incubated with various concentrations of test compound overnight. The amount of induced […] is measured by reading the absorbance at 650 nm. The compounds of the invention have an MC50 of 25 μM or less, wherein MC50 is defined as the concentration at which 50% of maximum induction is seen. For the TLR8 antagonist assays, cells are transiently transfected with the reporter gene on Day 1 per the supplier's instructions. Antagonist compounds are added to the cultures on Day 2 followed by addition of a TLR8 agonist approximately 2 hours later. Cultures are incubated overnight and SEAP activity is measured on Day 3. In a typical assay, 50,000 HEK239 hTLR8 cells are seeded per culture well and transiently transfected with the SEAP reporter gene. Antagonists are added to cultures in culture medium and […] DMSO over a concentration range of 0.1 nanomolar to 10 micromolar. TLR8 agonists are added to cultures 2 hours later at a fixed concentration (e.g., 1 micromolar or 10 micromolar of Compound A) and cultures are then incubated for 16-24 hrs at 37° C. in a humidified CO incubator. Antagonists are also evaluated for activity in the absence of agonist. TLR8 antagonist activity was measured in a hTLR8 assay format, measuring IC50 values. […] IC50s were then calculated.

[1] = system: IL-8 production in human PBMC stimulated with CL075; assay: Human PBMC assay: inhibition of IL-8 production stimulated with CL075 (ELISA); assay type: cell-based; conditions: 3 to 1000 nM antagonist, 2 hours before CL075 100 ng/ML (400 nM), overnight; one donor, duplicate wells
Method: PBMCs contain a mixture of cells including monocytes and myeloid dendritic cells (mDCs) that express TLR8. […] The ability of TLR8 antagonists to inhibit […] in human PBMCs was evaluated. […] Data shown in FIG. 1 are a representative experiment from one donor evaluated in duplicate culture wells. […] At the end of the incubation, cells were centrifuged and cell culture supernatants were analyzed for IL-8 by ELISA (eBiosciene kit) per the manufacturer's instructions.
The experiment shown in FIG. 1 was repeated in multiple donors and with additional TLR8 antagonist molecules (see FIG. 2). […] Percent inhibition is shown on the y-axis and concentrations of TLR8 antagonists (3-1000 nM) are shown on the x-axis in FIG. 2.

[2] = IC50, nM, vs. 3M002 10 μM, agonist 3M002 10 μM
[3] = IC50, nM, vs. VTX-378 1 μM, TLR8 agonist VTX-378 (Compound A) 1 μM
[4] = TLR8 agonist VTX-378 (Compound A) 0.5 μM, read-out: IC50, nM, vs. VTX-378 0.5 μM
[5] = IC50, nM, vs. VTX-378 10 μM, TLR8 agonist VTX-378 (Compound A) 10 μM
[6] = IC50, nM, vs. 3M002 1 μM, agonist 3M002 1 μM

Compound | IC50 (hTLR8; [2]) [nM] | IC50 (hTLR8; [3]) [nM] | IC50 (hTLR8; [4]) [nM] | IL-8 levels in human PBMC stimulated with CL075 (FIG. 1) [1] | IC50 (hTLR8; [5]) [nM] | IC50 (hTLR8; [6]) [nM]
CCOC(=O)C1=Cc2cc(-c3ccc(N4CCOC4=O)cc3Cl)ccc2N=C(N)C1 [Compound 3387, Ethyl 2-amino-7-[2-chloro-4-(2-oxo-1,3-oxazolidin-3-yl)phenyl]-3H-1-benzazepine-4-carboxylate] | < 1000 | < 1000 | < 1000 | reduced in a dose dependent fashion | – | –
CCOC(=O)C1=Cc2cc(-c3ccc(C(=O)N4CCCC4)cc3)ccc2N=C(N)C1(C)C [Compound 3348, Ethyl 2-amino-3,3-dimethyl-7-[4-(pyrrolidin-1-ylcarbonyl)phenyl]-3H-1-benzazepine-4-carboxylate] | – | – | – | reduced in a dose dependent fashion | – | –
CCOC(=O)Nc1ccc(-c2ccc3c(c2)C=C(C(=O)OCC)CC(N)=N3)c(Cl)c1 [Compound 3261, Ethyl 2-amino-7-{2-chloro-4-[(ethoxycarbonyl)amino]phenyl}-3H-1-benzazepine-4-carboxylate] | < 1000 | < 1000 | < 1000 | reduced in a dose dependent fashion | – | –
CCCN(CCC)C(=O)C1=Cc2cc(-c3ccc(C(=O)N4CCCC4)cc3)ccc2N=C(N)C1 [Compound 2987, 2-Amino-N,N-dipropyl-7-[4-(pyrrolidin-1-ylcarbonyl)phenyl]-3H-1-benzazepine-4-carboxamide] | – | – | – | reduced in a dose dependent fashion | – | –
CCOC(=O)C1=Cc2cc(-c3cccc(OC)c3Cl)ccc2N=C(N)C1 [Compound 3386, Ethyl 2-amino-7-(2-chloro-3-methoxyphenyl)-3H-1-benzazepine-4-carboxylate] | – | < 1000 | < 1000 | – | – | –
CCOC(=O)C1=Cc2cc(C(=O)OC(C)C)ccc2N=C(N)C1 [Compound 3197] | – | 1000 to 10000 | – | – | 1000 to 10000 | –
CCOC(=O)C1=Cc2cc(-c3cccc(C)c3Cl)ccc2N=C(N)C1 [Compound 3294, Ethyl 2-amino-7-(2-chloro-3-methylphenyl)-3H-1-benzazepine-4-carboxylate] | – | 1000 to 10000 | 1000 to 10000 | – | – | –
CCOC(=O)C1=Cc2cc(Oc3ccc(OC)cc3)ccc2N=C(N)C1 [Compound 3125] | ≥ 10000 | 1000 to 10000 | 1000 to 10000 | – | – | 1000 to 10000
CCOC(=O)C1=Cc2cc(-c3ccc(C(=O)N4CCCC4)cc3Cl)ccc2N=C(N)C1 [Compound 3322] | < 1000 | < 1000 | < 1000 | – | – | –
CCOC(=O)C1=Cc2cc(-c3ccc(C(=O)N4CCCC4)cc3)ccc2N=C2NCCC12 (centres unmarked) [Compound 3448] | – | < 1000 | < 1000 | reduced in a dose dependent fashion | – | –
CCOC(=O)C1=Cc2cc(-c3cccc(OC)c3)ccc2N=C(N)C1 [Compound 3267, Ethyl 2-amino-7-(3-methoxyphenyl)-3H-1-benzazepine-4-carboxylate] | 1000 to 10000 | 1000 to 10000 | 1000 to 10000 | – | – | –
CC(C)NC(=O)C1=Cc2cc(-c3ccc(C(=O)N4CCCC4)cc3)ccc2N=C(N)C1 [Compound 3009, 2-Amino-N-isopropyl-7-[4-(pyrrolidin-1-ylcarbonyl)phenyl]-3H-1-benzazepine-4-carboxamide] | – | 1000 to 10000 | – | – | ≥ 10000 | –
CCOC(=O)C1=Cc2cc(-c3ccc(C(=O)N(C)C)cc3)ccc2N=C(N)C1 [Compound 2937, Ethyl 2-amino-7-[4-(dimethylcarbamoyl)phenyl]-3H-1-benzazepine-4-carboxylate] | – | < 1000 | – | – | ≥ 10000 | –
CCOC(=O)C1=Cc2cc(Oc3ccccc3C)ccc2N=C(N)C1 [Compound 3128] | 1000 to 10000 | 1000 to 10000 | < 1000 | – | – | < 1000
CCOC(=O)C1=Cc2cc(-c3ccccc3C)ccc2N=C(N)C1 [Compound 3096, Ethyl 2-amino-7-(2-methylphenyl)-3H-1-benzazepine-4-carboxylate] | – | 1000 to 10000 | – | – | ≥ 10000 | –
CCOC(=O)C1=Cc2cc(-c3ccc(C(=O)N4CCCC4)cc3)ccc2N=C(NCCO)C1 [Compound 2968] | – | 1000 to 10000 | 1000 to 10000 | – | ≥ 10000 | –
NC1=Nc2ccc(-c3ccc(C(=O)N4CCCC4)cc3)cc2C=C(Br)C1 [Compound 3444] | – | < 1000 | < 1000 | – | – | –
